# T1: ABHD2^L33–E425 (Homo sapiens, UniProt P08910)
# T1 construct: expression for ABHD2 amino acids L33–E425, in which a predicted transmembrane domain (amino acids 1–32) is removed; His6-FLAG (N); made in house; host or cells: E. coli BL21(DE3)-R3-pRARE2
# T1 sequence (P08910 33-425): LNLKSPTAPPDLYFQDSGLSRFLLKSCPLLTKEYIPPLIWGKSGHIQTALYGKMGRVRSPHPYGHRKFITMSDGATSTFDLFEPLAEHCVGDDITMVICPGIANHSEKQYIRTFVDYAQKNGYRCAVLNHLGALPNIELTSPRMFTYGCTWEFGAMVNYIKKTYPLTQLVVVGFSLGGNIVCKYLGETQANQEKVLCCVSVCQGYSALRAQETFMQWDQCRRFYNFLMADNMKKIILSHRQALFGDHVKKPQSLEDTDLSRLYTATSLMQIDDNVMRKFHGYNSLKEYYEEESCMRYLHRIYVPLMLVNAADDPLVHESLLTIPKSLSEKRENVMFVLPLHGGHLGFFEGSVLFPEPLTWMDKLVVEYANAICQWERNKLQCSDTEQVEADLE
# T2: full-length human ABHD2 (ABHD2^FL) (Homo sapiens, UniProt P08910)
# T2 construct: TEV site-eGFP-8xHis (C, cleaved yes); made in house; host or cells: SF9 insect cells (baculovirus)
# T2 sequence (P08910 1-425): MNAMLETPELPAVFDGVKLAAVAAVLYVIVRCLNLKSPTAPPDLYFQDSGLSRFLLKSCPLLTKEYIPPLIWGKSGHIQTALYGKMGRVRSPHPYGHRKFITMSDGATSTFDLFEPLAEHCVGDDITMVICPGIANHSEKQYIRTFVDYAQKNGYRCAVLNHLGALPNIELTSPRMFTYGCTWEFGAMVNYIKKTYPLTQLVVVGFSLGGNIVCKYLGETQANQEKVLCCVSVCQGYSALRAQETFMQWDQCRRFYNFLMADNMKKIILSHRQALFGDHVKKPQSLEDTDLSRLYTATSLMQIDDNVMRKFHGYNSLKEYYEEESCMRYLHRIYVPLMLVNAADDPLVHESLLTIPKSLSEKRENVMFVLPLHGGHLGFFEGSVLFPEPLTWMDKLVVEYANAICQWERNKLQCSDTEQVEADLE
# T3: ABHD2^FL (Homo sapiens, UniProt P08910)
# T3 construct: TEV site-eGFP-8xHis (C, cleaved yes); made in house; host or cells: SF9 insect cells (baculovirus)
# T3 sequence (P08910 1-425): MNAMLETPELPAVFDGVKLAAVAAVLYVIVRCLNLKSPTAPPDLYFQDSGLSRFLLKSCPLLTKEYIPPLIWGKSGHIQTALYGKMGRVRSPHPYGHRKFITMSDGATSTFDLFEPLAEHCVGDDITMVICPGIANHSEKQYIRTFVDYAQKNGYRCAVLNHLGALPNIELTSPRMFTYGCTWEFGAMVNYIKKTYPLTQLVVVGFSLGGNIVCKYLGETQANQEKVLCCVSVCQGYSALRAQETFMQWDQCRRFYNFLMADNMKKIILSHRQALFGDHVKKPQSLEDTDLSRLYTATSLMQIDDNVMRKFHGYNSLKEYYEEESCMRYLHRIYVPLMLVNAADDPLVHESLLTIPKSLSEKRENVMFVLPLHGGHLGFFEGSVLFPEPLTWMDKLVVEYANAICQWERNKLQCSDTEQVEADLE
# T4: human ABHD10 (Homo sapiens, UniProt Q9NUJ1)
# T4 construct: Constructs encoding amino acids T53—N306 of human ABHD10; His6-TEV site (N); made in house; host or cells: E. coli
# T4 sequence (Q9NUJ1 53-306): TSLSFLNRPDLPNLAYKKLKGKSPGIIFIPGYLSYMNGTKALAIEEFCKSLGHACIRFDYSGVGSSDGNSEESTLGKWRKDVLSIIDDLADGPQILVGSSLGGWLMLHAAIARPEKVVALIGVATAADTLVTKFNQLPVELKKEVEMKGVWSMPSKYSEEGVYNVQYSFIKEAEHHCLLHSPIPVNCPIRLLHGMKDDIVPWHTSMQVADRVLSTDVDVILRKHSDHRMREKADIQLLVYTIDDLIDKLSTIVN
# T5: human ABHD11 (Homo sapiens, UniProt Q8NFV4)
# T5 construct: residues V34—V315 of human ABHD11; His6-TEV site (N); made in house; host or cells: E. coli
# T5 sequence (Q8NFV4 25-306 limits assumed): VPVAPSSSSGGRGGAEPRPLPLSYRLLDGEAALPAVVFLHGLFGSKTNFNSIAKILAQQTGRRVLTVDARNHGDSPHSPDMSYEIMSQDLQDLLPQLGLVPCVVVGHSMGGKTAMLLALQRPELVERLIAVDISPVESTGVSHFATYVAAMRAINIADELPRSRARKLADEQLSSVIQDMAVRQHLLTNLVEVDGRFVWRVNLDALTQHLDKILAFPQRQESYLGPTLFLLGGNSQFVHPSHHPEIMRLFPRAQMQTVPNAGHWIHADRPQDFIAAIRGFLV
# Key:
# [1] = target: T1, ABHD2^L33–E425; experiment: ABHD2^L33-E425 fluorometric enzymatic activity assay with 7-HCA substrate; assay type: biochemical
# [2] = test system: human sperm; experiment: Sperm hyperactivation assay (CASA); assay type: cell-based; conditions: 3 µM, 30 min
# Method: Sperm hyperactivation was assessed in human sperm purified by density gradient centrifugation. Semen samples (n = 7) were allowed to liquefy for 15–30 min at 37°C, and up to 2 ml of liquified semen was layered onto a two-step GM501 gradient system (45%/90%; Gynemed; Sierksdorf, Germany) pre-equilibrated at 37°C. Gradients were centrifuged for 20 min at 400 × g (no break). The 90% pellet was collected, washed in SpermActive medium (Gynemed; composition per manufacturer: NaCl, KCl, MgSO4.7H2O, KH2PO4, 1.77 mM CaCl2.2H2O, D(+)-glucose anhydrous, sodium pyruvate, sodium lactate, EDTA, alanyl-glutamine, essential and non-essential amino acids, 25.71 mM NaHCO3, 15 mM HEPES, 5 g/l human serum albumin, 10 mg/l gentamicin, and phenol red), and incubated for at least 2 h at 37°C, 5% CO2.
# For compound testing, sperm suspensions with 7.5 × 10^6 sperm/ml in SpermActive were treated with either DMSO (vehicle) or 10 µM test compound. For basal and induced hyperactivation conditions, DMSO or progesterone (3 µM), respectively, was added. Samples were incubated for 30 min at 37°C, 5% CO2, before motility analysis.
# Motility was analyzed using a CASA system (CEROSII^TM Animal Motility, software version 1.16; Hamilton Thorne, Beverly, MA, USA), mounted on an Axiolab 5 microscope (Zeiss, Germany), equipped with a TPi-SX Thermal Plate (Tokai Hit; Shizuoka-ken, Japan) and a JAI CM-040-GE CCD camera (JAI; Tokyo, Japan). Leja slides (20 µm chamber depth; Leja Products B.V., Nieuw-Vennep, The Netherlands) were pre-warmed to 37°C, cleaned with lens paper, and loaded by capillary action with 6 µl sperm suspension; capillary correction was set to 1.3. Sperm tracks were recorded at 37°C using a 10× negative-phase objective, acquiring 60 frames at 60 Hz with 4 ms exposure and gain set to 600. For each sample and condition, 300–500 motile sperm from at least 10 non-overlapping fields were analyzed. Hyperactive sperm were identified using the SORT function with the following Boolean argument: VCL > 150 µm/s and LIN < 50% and ALH > 7 µm. For each sample and condition, the percentage of hyperactive sperm was normalized to the percentage of motile sperm, and the mean of two technical duplicates was reported.
# Statistical analysis was performed using GraphPad Prism 10 for Windows (version 10.6.1). Data normality was assessed using Shapiro–Wilk test. Differences between basal and induced hyperactivation were evaluated using a paired t-test, with effective pairing confirmed across all comparisons. P < 0.05 was considered statistically significant.
# [3] = target: T2, full-length human ABHD2 (ABHD2^FL); experiment: ABHD2^FL enzymatic activity assay with 7-HCA substrate; assay type: biochemical
# [4] = target: T1, ABHD2^L33–E425; experiment: Differential scanning fluorimetry (DSF) with purified ABHD2^L33–E425; assay type: binding
# [5] = target: T3, ABHD2^FL; experiment: Differential scanning fluorimetry (DSF) with purified ABHD2^FL; assay type: binding; conditions: 20 µM
# [6] = target: T4, human ABHD10; experiment: ABHD10 colorimetric assay with p-nitrophenyl butyrate; assay type: biochemical; conditions: 10 µM compound, 500 µM p-NPB
# Method: (§1) Enzymatic activities of ABHD10 and ABHD11 were measured in a colorimetric assay using p-nitrophenyl butyrate (p-NPB) as substrate. Enzymes at 1500 nM ABHD10 and 125 nM ABHD11 in 20 mM HEPES pH 7.5, 150 mM NaCl, and 2% (v/v) DMSO were pre-incubated in 96-well plates with 50 µM test compound for 30 min at 4°C. Plates were then equilibrated at 37°C for 2 min, and reactions were initiated by adding 160 µl of pre-warmed substrate solution (same buffer with 625 µM p-NPB) to a total volume of 200 µl, yielding final assay concentrations of 300 nM ABHD10, 25 nM ABHD11, and 500 µM pNPB. The substrate solution was prepared immediately before addition to the enzyme mixtures. Absorbance at 405 nm was recorded on a SpectraMax iD3 plate reader (Molecular Devices) for 20 min with continuous monitoring at 30 s intervals.
# [7] = target: T5, human ABHD11; experiment: ABHD11 colorimetric assay with p-nitrophenyl butyrate; assay type: biochemical; conditions: 10 µM compound, 500 µM p-NPB
# Method: as §1
# [8] = target: T2, full-length human ABHD2 (ABHD2^FL); experiment: ABHD2^FL enzymatic activity assay with resorufin butyrate (RB) substrate; assay type: biochemical
# [9] = target: the molecule itself; experiment: SEC; HiLoad 16/600 Superdex 75 pg, final purification step after nickel affinity; pure fractions concentrated in 20 mM HEPES pH 8, 500 mM NaCl, 10% (v/v) glycerol, 1 mM TCEP
molecule,measurement,setting,value
CC(=O)[C@H]1CC[C@H]2[C@@H]3CCC4=CC(=O)CC[C@]4(C)[C@H]3CC[C@]12C [progesterone],effect on enzymatic activity of purified ABHD2^L33–E425,"[1]; 5 µM steroid or triterpenoid, 300 nM 7-HCA",did not alter
same,fraction of hyperactivated sperm upon stimulation,[2],increased
same,effect on enzymatic activity of purified ABHD2^FL,"[3]; 7-HCA and RB substrates (Suppl. Fig. S4A,B), weak effects at ≥5 µM",did not alter
same,effect on heat-induced denaturation of ABHD2^L33–E425 (DSF binding),"[4]; 40 µM steroid, 30 min pre-incubation",did not affect
same,effect on heat-induced denaturation of ABHD2^FL (DSF binding),[5],did not affect
O=C(N1CCCCC1)N1CCCCC1c1ccccc1 (stereo not drawn) [Compound 2],inhibition of ABHD10,[6],no detectable inhibition
same,IC50,"[1]; 10 nM enzyme, 10 µM 7-HCA, read-out: IC50 for ABHD2^L33-425, fluorometric assay using 7-HCA",0.32 µM
same,inhibition of ABHD11,[7],no detectable inhibition
same,IC50,"[3]; Supplementary Table S2, read-out: IC50 measured in ABHD2^FL in the 7-HCA Assay",0.49 µM
same,"effect on melting temperature / thermal stability of ABHD2^L33-E425 (DSF), in words","[4]; 10 µM compound, 30 min pre-incubation",increased melting temperature
same,ΔTm shift for ABHD2^L33-425 determined by DSF,[4]; purified protein,13 °C
CCCCCCCCCCC[C@@H](C[C@@H]1OC(=O)[C@H]1CCCCCC)OC(=O)[C@H](CC(C)C)NC=O [Orlistat],IC50,[8]; 15 µM RB,0.305 µM
same,IC50,"[3]; 5 µM 7-HCA, read-out: IC50, ABHD2^FL, 7-HCA assay",0.969 µM
"CCCC(=O)Oc1ccc2nc3ccc(=O)cc-3oc2c1 [RB, resorufin butyrate]",Km,"[8]; 25 nM ABHD2^FL, read-out: Km of substrate hydrolysis by ABHD2^FL",23 µM
"Truncated ABHD2 (ABHD2^L33–E425) (domain or fragment, human, UniProt P08910 33-425, looked up, human ABHD2 (alpha/beta hydrolase domain-containing protein 2), Uniprot ID P08910, amino acids L33-E425; the predicted transmembrane domain (amino acids 1-32) is removed; No tag cleavage is described; Further construct details may be in the Supplementary Materials and Methods; also called ABHD2^L33-425; ABHD2 amino acids L33–E425; source: E. coli BL21(DE3)-R3-pRARE2, purified (nickel-sepharose, …)) LNLKSPTAPPDLYFQDSGLSRFLLKSCPLLTKEYIPPLIWGKSGHIQTALYGKMGRVRSPHPYGHRKFITMSDGATSTFDLFEPLAEHCVGDDITMVICPGIANHSEKQYIRTFVDYAQKNGYRCAVLNHLGALPNIELTSPRMFTYGCTWEFGAMVNYIKKTYPLTQLVVVGFSLGGNIVCKYLGETQANQEKVLCCVSVCQGYSALRAQETFMQWDQCRRFYNFLMADNMKKIILSHRQALFGDHVKKPQSLEDTDLSRLYTATSLMQIDDNVMRKFHGYNSLKEYYEEESCMRYLHRIYVPLMLVNAADDPLVHESLLTIPKSLSEKRENVMFVLPLHGGHLGFFEGSVLFPEPLTWMDKLVVEYANAICQWERNKLQCSDTEQVEADLE",stoichiometry N,[9],4

# Reference: article PMC13429874, “ABHD2 activity is not required for the non-genomic action of progesterone on human sperm” (Human Reproduction (Oxford, England), 2026)
